Reference: patent US9856279B2 (AGIOS PHARMACEUTICALS, INC, priority 2011, dated 2018)

How the values were obtained:
[1] = system: HT1080 cells; assay: Cellular assay for IDH1m inhibitors: inhibition of 2-HG production (LC-MS, 48 hours) in HT1080 cells; type: cell-based; settings: Homo sapiens, HT-1080; inhibition of 2-HG production, HT1080 cells; read-out: HT1080 IC50
Procedure, shortened: (§1)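 The read-out is 2-HG in culture medium, measured by LC-MS after 48 h of compound exposure (0.2% DMSO) in cells plated overnight at 5000 per well in DMEM/10% FBS. IC50 is 50% reduction relative to DMSO wells. Luminescent viability (Cell Titer Glo) followed at 72 h.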

[2] = system: U87MG cells; assay: Cellular assay for IDH1m inhibitors: inhibition of 2-HG production (LC-MS, 48 hours) in U87MG cells; type: cell-based; settings: Homo sapiens, U-87 MG, inhibition of 2-HG production, U87R132H cells; read-out: U87R132H IC50
Procedure, shortened: as §1

[3] = biological target: IDH1 R132H (Homo sapiens, UniProt O75874, R132H); assay: Assay for IDH1 R132H inhibitors (NADPH/aKG, resazurin detection); type: biochemical; settings: enzyme assay of Example 12; read-out: IDH1R132H IC50
Procedure, shortened: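 Compound added to substrate mix (8 uM NADPH, 2 mM aKG), then enzyme mix (0.2 μg/ml IDH1 R132H); 50 min RT in 20 mM Tris pH 7.5, 150 mM NaCl, 10 mM MgCl2, 0.03% BSA. Resazurin detection mix (30 μM) 5 min RT; resorufin fluorescence Ex544/Em590.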

IDH1 R132H, sequence (O75874 whole entry R132H): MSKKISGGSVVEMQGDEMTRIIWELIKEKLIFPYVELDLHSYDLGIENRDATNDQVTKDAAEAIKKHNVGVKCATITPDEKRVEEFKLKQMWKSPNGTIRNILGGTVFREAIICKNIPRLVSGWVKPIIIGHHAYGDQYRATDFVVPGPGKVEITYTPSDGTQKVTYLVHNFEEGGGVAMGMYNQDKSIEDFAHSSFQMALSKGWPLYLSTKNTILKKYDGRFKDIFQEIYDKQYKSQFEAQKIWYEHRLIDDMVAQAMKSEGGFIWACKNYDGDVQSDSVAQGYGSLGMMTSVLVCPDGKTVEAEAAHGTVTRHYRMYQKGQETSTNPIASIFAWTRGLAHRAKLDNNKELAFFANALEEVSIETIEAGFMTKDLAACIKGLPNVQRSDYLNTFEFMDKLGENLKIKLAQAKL

Row | SMILES | IC50 [1] [nM] | IC50 [2] [nM] | IC50 [3] [nM]
1 | N#Cc1cc(-c2cccc3cnccc23)c(C2CC2)nc1N1CCN(C(=O)C2CC2)[C@H](C2CC2)C1 [Compound 391, (R)-2-(4-(cyclopropanecarbonyl)-3-cyclopropylpiperazin-1-yl)-6-cyclopropyl-5-(isoquinolin-5-yl)nicotinonitrile] | 500 to 1000 | 500 to 1000 | < 500
2 | C=Cc1ccnc(Nc2cc(C#N)c(N3CCN(C(=O)CC4CCCO4)[C@H](C4CC4)C3)nc2C2CC2)c1 (stereo partly drawn) [Compound 813, 6-cyclopropyl-2-((3R)-3-cyclopropyl-4-(2-(tetrahydrofuran-2-yl)acetyl)piperazin-1-yl)-5-((4-vinylpyridin-2-yl)amino)nicotinonitrile] | < 500 | < 500 | < 500
3 | COCCC(=O)N1CCN(c2nc(C3CC3)c(-c3cccc4cnccc34)cc2C#N)C[C@H]1C1CC1 [Compound 409, (R)-6-cyclopropyl-2-(3-cyclopropyl-4-(3-methoxypropanoyl)piperazin-1-yl)-5-(isoquinolin-5-yl)nicotinonitrile] | < 500 | < 500 | < 500
4 | C#Cc1ccnc(N(c2cc(C#C)ccn2)c2cc(C#N)c(N3CCN(C(=O)CCOC)[C@H](C)C3)nc2C2CC2)c1 [Compound 714, (R)-5-(bis(4-ethynylpyridin-2-yl)amino)-6-cyclopropyl-2-(4-(3-methoxypropanoyl)-3-methylpiperazin-1-yl)nicotinonitrile] | < 500 | < 500 | < 500
5 | Cc1cc2c(-c3cc(C#N)c(N4CCN(C(=O)C5CC5)[C@H](C5CC5)C4)nc3C3CC3)cccc2cn1 [Compound 458, (R)-2-(4-(cyclopropanecarbonyl)-3-cyclopropylpiperazin-1-yl)-6-cyclopropyl-5-(3-methylisoquinolin-5-yl)nicotinonitrile] | 500 to 1000 | 500 to 1000 | < 500
6 | N#Cc1cc(-c2cccc3cnccc23)c(C2CC2)nc1N1CCN(C(=O)c2ccoc2)[C@H](C2CC2)C1 [Compound 488, (R)-6-cyclopropyl-2-(3-cyclopropyl-4-(furan-3-carbonyl)piperazin-1-yl)-5-(isoquinolin-5-yl)nicotinonitrile] | < 500 | 500 to 1000 | < 500
7 | C=Cc1ccnc(Nc2cc(C#N)c(N3CCN(C(=O)CCC4CCO4)[C@H](C4CC4)C3)nc2C2CC2)c1 (stereo partly drawn) [Compound 812, 6-cyclopropyl-2-((3R)-3-cyclopropyl-4-(3-(oxetan-2-yl)propanoyl)piperazin-1-yl)-5-((4-vinylpyridin-2-yl)amino)nicotinonitrile] | < 500 | < 500 | < 500
8 | C=Cc1cc(-c2cc(C#N)c(N3CCN(C(=O)C[C@H]4CCO4)[C@H](C4CC4)C3)nc2C2CC2)c2cnn(C)c2n1 [Compound 778, 6-cyclopropyl-2-((R)-3-cyclopropyl-4-(2-((R)-oxetan-2-yl)acetyl)piperazin-1-yl)-5-(1-methyl-6-vinyl-1H-pyrazolo[3,4-b]pyridin-4-yl)nicotinonitrile] | < 500 | < 500 | < 500
9 | C=Cc1cnnc(-c2c(C3CC3)nc(N3CCN(C(=O)OC(C)(C)C)[C@H](C4CC4)C3)c(C#N)c2C)c1 [Compound 771, (R)-tert-butyl 4-(3-cyano-6-cyclopropyl-4-methyl-5-(5-vinylpyridazin-3-yl)pyridin-2-yl)-2-cyclopropylpiperazine-1-carboxylate] | < 500 | < 500 | < 500
10 | CCS(=O)(=O)N1CCN(c2cc(C#N)c(N3CCN(C(=O)CCOC)[C@H](C)C3)nc2C2CC2)CC1 [Compound 377, (R)-6-cyclopropyl-5-(4-(ethylsulfonyl)piperazin-1-yl)-2-(4-(3-methoxypropanoyl)-3-methylpiperazin-1-yl)nicotinonitrile] | 500 to 1000 | < 500 | < 500
11 | C=Cc1cc(-c2cc(C#N)c(N3CCN(C(=O)CCCOC)[C@H](C4CC4)C3)nc2C2CC2)ccn1 [Compound 747, (R)-2-cyclopropyl-6-(3-cyclopropyl-4-(4-methoxybutanoyl)piperazin-1-yl)-2′-vinyl-3,4′-bipyridine-5-carbonitrile] | < 500 | < 500 | < 500
12 | COCCC(=O)N1CCN(c2nc(C3CC3)c(-c3c(C)noc3C)c(C)c2C#N)C[C@H]1C [Compound 351, (R)-6-cyclopropyl-5-(3,5-dimethyl-isoxazol-4-yl)-2-[4-(3-methoxy-propionyl)-3-methyl-piperazin-1-yl]-4-methyl-nicotinonitrile] | 1000 to 10000 | 500 to 1000 | < 500

The next lines start with the values.

Row | IC50 [1] [nM] | IC50 [2] [nM] | IC50 [3] [nM] | SMILES
13 | < 500 | < 500 | < 500 | COCCC(=O)N1CCN(c2nc(C3CC3)c(-c3cccc4ncccc34)cc2C#N)C[C@H]1C [Compound 288, (R)-6-cyclopropyl-2-(4-(3-methoxypropanoyl)-3-methylpiperazin-1-yl)-5-(quinolin-5-yl)nicotinonitrile]
14 | 1000 to 10000 | 1000 to 10000 | 500 to 1000 | COCCC(=O)N1CCN(c2nc(C3CC3)c(-c3ccnc(Cl)c3)cc2C#N)C[C@H]1C [Compound 401, (R)-2′-chloro-2-cyclopropyl-6-(4-(3-methoxypropanoyl)-3-methylpiperazin-1-yl)-3,4′-bipyridine-5-carbonitrile]
15 | 500 to 1000 | < 500 | < 500 | C=C(F)C(=O)N(C)c1cccc(-c2cc(C#N)c(N3CCN(C(=O)CCOC)[C@H](C)C3)nc2C2CC2)c1 [Compound 453, (R)—N-(3-(5-cyano-2-cyclopropyl-6-(4-(3-methoxypropanoyl)-3-methylpiperazin-1-yl)pyridin-3-yl)phenyl)-2-fluoro-N-methylacrylamide]
16 | < 500 | < 500 | < 500 | C=CC(=O)N(C)c1cccc(-c2cc(C#N)c(N3CCN(C(=O)CCOC)[C@H](C)C3)nc2C2CC2)c1 [Compound 427]
17 | 500 to 1000 | < 500 | < 500 | COCCC(=O)N1CCN(c2nc(C3CC3)c(-c3cccc(CNS(C)(=O)=O)c3)c(C)c2C#N)C[C@H]1C [Compound 335, (R)—N-(3-{5-cyano-2-cyclopropyl-6-[4-(3-methoxy-propionyl)-3-methyl-piperazin-1-yl]-4-methyl-pyridin-3-yl}-benzyl)-methanesulfonamide]
18 | < 500 | < 500 | < 500 | C=CC(=O)Nc1ccc(C(C)Oc2cc(C#N)c(N3CCN(C(=O)CCOC)[C@H](C)C3)nc2C2CC2)cc1 (stereo partly drawn) [Compound 389, N-(4-(1-(5-cyano-2-cyclopropyl-6-((R)-4-(3-methoxypropanoyl)-3-methylpiperazin-1-yl)pyridin-3-yloxy)ethyl)phenyl)acrylamide]
19 | 1000 to 10000 | 500 to 1000 | < 500 | COCCC(=O)N1CCN(c2nc(C3CC3)c(-c3cccc(-c4cc[nH]n4)c3)cc2C#N)C[C@H]1C [Compound 363, (R)-6-cyclopropyl-2-[4-(3-methoxy-propionyl)-3-methyl-piperazin-1-yl]-5-[3-(1H-pyrazol-3-yl)-phenyl]-nicotinonitrile]
20 | 500 to 1000 | 500 to 1000 | < 500 | COCCC(=O)N1CCN(c2nc(C3CC3)c(OCc3ccncc3)cc2C#N)C[C@H]1C [Compound 309, (R)-6-cyclopropyl-2-(4-(3-methoxypropanoyl)-3-methylpiperazin-1-yl)-5-(pyridin-4-ylmethoxy)nicotinonitrile]
21 | 1000 to 10000 | 1000 to 10000 | 500 to 1000 | CCc1cc(-c2cc(C#N)c(N3CCN(C(=O)CCOC)[C@H](C)C3)nc2C2CC2)ccn1 [Compound 426, (R)-2-cyclopropyl-2′-ethyl-6-(4-(3-methoxypropanoyl)-3-methylpiperazin-1-yl)-3,4′-bipyridine-5-carbonitrile]
22 | 1000 to 10000 | 1000 to 10000 | < 500 | COCCC(=O)N1CCN(c2nc(C3CC3)c(-c3ccc(N)cc3)cc2C#N)C[C@H]1C [Compound 383, (R)-5-(4-aminophenyl)-6-cyclopropyl-2-(4-(3-methoxypropanoyl)-3-methylpiperazin-1-yl)nicotinonitrile]
23 | 1000 to 10000 | 1000 to 10000 | < 500 | COCCC(=O)N1CCN(c2nc(C3CC3)c(-c3cccc(-c4cn[nH]c4)c3)cc2C#N)C[C@H]1C [Compound 406, (R)-6-cyclopropyl-2-[4-(3-methoxy-propionyl)-3-methyl-piperazin-1-yl]-5-[3-(1H-pyrazol-4-yl)-phenyl]-nicotinonitrile]
24 | 500 to 1000 | 500 to 1000 | < 500 | COCCC(=O)N1CCN(c2nc(C3CC3)c(-c3cccc(NC(=O)CCl)c3)cc2C#N)C[C@H]1C [Compound 403, (R)-2-chloro-N-(3-(5-cyano-2-cyclopropyl-6-(4-(3-methoxypropanoyl)-3-methylpiperazin-1-yl)pyridin-3-yl)phenyl)acetamide]
25 | 1000 to 10000 | 500 to 1000 | < 500 | COCCC(=O)N1CCN(c2nc(C3CC3)c(-c3ccc4[nH]cnc4c3)cc2C#N)C[C@H]1C [Compound 361, (R)-5-(1H-benzoimidazol-5-yl)-6-cyclopropyl-2-[4-(3-methoxy-propionyl)-3-methyl-piperazin-1-yl]-nicotinonitrile]
